In ChEMBL document CHEMBL1909046, “DrugMatrix in vitro pharmacology data”:

What was measured:
[1] = target: T1, Alpha-2C adrenergic receptor (Homo sapiens, UniProt P18825); assay: DRUGMATRIX: Adrenergic Alpha-2C radioligand binding (ligand: [3H] MK-912); assay type: cell membranes, Sf9, Membrane; conditions: sf9
T1 sequence (P18825 whole entry): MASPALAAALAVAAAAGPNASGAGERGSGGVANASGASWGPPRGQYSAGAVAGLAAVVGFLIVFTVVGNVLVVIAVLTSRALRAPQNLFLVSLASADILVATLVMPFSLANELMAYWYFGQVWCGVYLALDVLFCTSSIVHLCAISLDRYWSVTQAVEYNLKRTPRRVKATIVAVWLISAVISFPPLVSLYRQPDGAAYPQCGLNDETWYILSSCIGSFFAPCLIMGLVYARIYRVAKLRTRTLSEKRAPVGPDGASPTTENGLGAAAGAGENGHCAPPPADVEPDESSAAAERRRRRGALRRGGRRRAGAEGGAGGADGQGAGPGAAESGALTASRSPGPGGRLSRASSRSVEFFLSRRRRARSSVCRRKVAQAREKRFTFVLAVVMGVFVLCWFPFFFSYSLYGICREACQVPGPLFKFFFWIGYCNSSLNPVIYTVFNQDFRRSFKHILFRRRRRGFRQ

[2] = DRUGMATRIX: ATPase, Na+/K+ enzyme inhibition (substrate: ATP); assay type: tissue-based, Sus scrofa, Heart; conditions: Not Active = under 50% inhibition at 10 µM
[3] = DRUGMATRIX: Glutamate, NMDA, Phencyclidine radioligand binding (ligand: [3H] TCP); assay type: cell membranes, Rattus norvegicus, Wistar, Cerebral cortex, Membrane; conditions: Not Active = under 50% inhibition at 10 µM
[4] = DRUGMATRIX: Phosphodiesterase PDE3 enzyme inhibition (substrate: [3H]cAMP + cAMP); assay type: tissue-based, Homo sapiens; conditions: platelet; Not Active = under 50% inhibition at 10 µM
[5] = target: T2, Angiotensin-converting enzyme (Oryctolagus cuniculus, UniProt P12822); assay type: tissue-based, Lung;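 also: enzymatic inhibition of angiotensin-converting enzyme measured with FAPGG as the substrate; in other assays of this panel Not Active means under 50% inhibition at 10 µM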
T2 sequence (P12822 whole entry): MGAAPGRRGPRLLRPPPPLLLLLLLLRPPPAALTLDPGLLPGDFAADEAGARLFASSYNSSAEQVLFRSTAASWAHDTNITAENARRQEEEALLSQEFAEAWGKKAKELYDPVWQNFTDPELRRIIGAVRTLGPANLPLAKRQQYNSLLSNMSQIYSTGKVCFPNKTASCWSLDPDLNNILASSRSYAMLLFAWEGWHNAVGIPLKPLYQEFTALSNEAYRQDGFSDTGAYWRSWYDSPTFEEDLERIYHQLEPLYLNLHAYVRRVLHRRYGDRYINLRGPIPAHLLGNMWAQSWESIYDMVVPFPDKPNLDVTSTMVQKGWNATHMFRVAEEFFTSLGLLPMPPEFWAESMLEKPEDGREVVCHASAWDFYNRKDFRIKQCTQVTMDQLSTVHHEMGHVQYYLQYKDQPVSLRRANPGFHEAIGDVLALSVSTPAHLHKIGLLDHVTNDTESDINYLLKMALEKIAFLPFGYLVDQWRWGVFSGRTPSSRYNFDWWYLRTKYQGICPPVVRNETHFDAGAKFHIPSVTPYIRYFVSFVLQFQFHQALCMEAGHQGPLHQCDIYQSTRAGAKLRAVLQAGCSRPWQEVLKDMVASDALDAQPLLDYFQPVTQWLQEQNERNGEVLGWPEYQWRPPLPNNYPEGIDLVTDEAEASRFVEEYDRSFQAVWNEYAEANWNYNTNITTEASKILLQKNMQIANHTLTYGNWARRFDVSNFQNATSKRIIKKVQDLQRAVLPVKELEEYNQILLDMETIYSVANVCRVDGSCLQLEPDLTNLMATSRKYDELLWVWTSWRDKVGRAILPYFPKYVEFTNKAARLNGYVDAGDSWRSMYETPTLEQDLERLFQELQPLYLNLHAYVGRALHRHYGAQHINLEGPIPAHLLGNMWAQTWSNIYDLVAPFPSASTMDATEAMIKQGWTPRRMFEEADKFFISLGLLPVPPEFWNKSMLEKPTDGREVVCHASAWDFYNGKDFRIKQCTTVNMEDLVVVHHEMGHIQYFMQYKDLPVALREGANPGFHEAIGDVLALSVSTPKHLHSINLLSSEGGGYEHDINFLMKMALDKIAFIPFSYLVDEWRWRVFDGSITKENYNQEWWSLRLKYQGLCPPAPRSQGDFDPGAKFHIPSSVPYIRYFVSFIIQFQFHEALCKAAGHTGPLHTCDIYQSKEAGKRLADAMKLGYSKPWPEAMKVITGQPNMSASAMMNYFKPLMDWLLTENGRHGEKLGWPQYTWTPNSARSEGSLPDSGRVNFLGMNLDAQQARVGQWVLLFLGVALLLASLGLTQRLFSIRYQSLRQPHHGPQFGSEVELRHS

[6] = target: Receptor tyrosine-protein kinase erbB-2 (Homo sapiens, UniProt P04626); assay: biochemical; assay type: cell-based, Insect cells; conditions: insect cells;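 also: inhibition of HER2 kinase enzyme activity, measured with Poly(Glu:Tyr) as the phosphorylation substrate; in other assays of this panel Not Active means under 50% inhibition at 10 µM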
Cytochrome P450 2A6 = target: T3, Cytochrome P450 2A6 (Homo sapiens, UniProt P11509); conditions: bti-tn-5b1-4; also: in other assays of this panel Not Active means under 50% inhibition at 10 µM
T3 sequence (P11509 whole entry): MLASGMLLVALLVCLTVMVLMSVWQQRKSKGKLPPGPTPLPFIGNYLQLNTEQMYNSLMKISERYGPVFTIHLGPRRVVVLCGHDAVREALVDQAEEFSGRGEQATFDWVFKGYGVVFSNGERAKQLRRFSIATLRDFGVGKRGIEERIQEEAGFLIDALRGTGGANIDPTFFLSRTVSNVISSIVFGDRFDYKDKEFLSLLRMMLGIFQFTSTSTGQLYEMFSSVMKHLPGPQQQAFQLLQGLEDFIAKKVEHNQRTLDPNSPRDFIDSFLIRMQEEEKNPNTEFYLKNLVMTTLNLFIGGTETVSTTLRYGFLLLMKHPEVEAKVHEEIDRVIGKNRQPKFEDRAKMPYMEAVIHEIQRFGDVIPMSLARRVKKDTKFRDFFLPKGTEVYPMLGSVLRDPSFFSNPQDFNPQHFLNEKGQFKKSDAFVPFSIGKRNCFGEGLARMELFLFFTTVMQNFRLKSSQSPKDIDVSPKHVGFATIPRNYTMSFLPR

OCCN1CCN(CCCN2c3ccccc3Sc3ccc(Cl)cc32)CC1 [PERPHENAZINE]
Not Active: IC50 [1] | IC50 [2] | Ki [2] | IC50 [3] | Ki [3] | IC50 [4] | Ki [4] | IC50 [5] | IC50 [6] | IC50 (Cytochrome P450 2A6) | Ki (Cytochrome P450 2A6)

CC(C)(C)c1ccc(S(=O)(=O)/C=C/C#N)cc1 [BAY-11-7085]
Not Active: IC50 [1] | IC50 [2] | Ki [2] | IC50 [3] | Ki [3] | IC50 [4] | Ki [4] | IC50 [5] | IC50 [6] | IC50 (Cytochrome P450 2A6) | Ki (Cytochrome P450 2A6)

CCC(=O)O[C@H]1[C@H](O[C@@H]2[C@@H](C)[C@H](O[C@H]3C[C@@](C)(OC)[C@@H](O)[C@H](C)O3)[C@@H](C)C(=O)O[C@H](CC)[C@@](C)(O)[C@H](O)[C@@H](C)C(=O)[C@H](C)C[C@@]2(C)O)O[C@H](C)C[C@@H]1N(C)C [ERYTHROMYCIN PROPIONATE]
Not Active: IC50 [1] | IC50 [2] | Ki [2] | IC50 [3] | Ki [3] | IC50 [4] | Ki [4] | IC50 [5] | IC50 [6] | IC50 (Cytochrome P450 2A6) | Ki (Cytochrome P450 2A6)

C#C[C@]1(O)CC[C@H]2[C@@H]3CCc4cc(O)ccc4[C@H]3CC[C@@]21C [ETHINYL ESTRADIOL]
Not Active: IC50 [1] | IC50 [2] | Ki [2] | IC50 [3] | Ki [3] | IC50 [4] | Ki [4] | IC50 [5] | IC50 [6] | IC50 (Cytochrome P450 2A6) | Ki (Cytochrome P450 2A6)

Nc1nc(Cl)nc2c1ncn2[C@H]1C[C@H](O)[C@@H](CO)O1 [CLADRIBINE]
Not Active: IC50 [1] | IC50 [2] | Ki [2] | IC50 [3] | Ki [3] | IC50 [4] | Ki [4] | IC50 [5] | IC50 [6] | IC50 (Cytochrome P450 2A6) | Ki (Cytochrome P450 2A6)

CC(C)(Sc1cc(C(C)(C)C)c(O)c(C(C)(C)C)c1)Sc1cc(C(C)(C)C)c(O)c(C(C)(C)C)c1 [PROBUCOL]
Not Active: IC50 [1] | IC50 [2] | Ki [2] | IC50 [3] | Ki [3] | IC50 [4] | Ki [4] | IC50 [5] | IC50 [6] | IC50 (Cytochrome P450 2A6) | Ki (Cytochrome P450 2A6)

CC(CCc1ccc(O)cc1)NCCc1ccc(O)c(O)c1 (configuration not stated) [DOBUTAMINE]
Not Active: IC50 [1] | IC50 [2] | Ki [2] | IC50 [3] | Ki [3] | IC50 [4] | Ki [4] | IC50 [5] | IC50 [6] | IC50 (Cytochrome P450 2A6) | Ki (Cytochrome P450 2A6)

POLYVINYL ALCOHOL
Not Active: IC50 [1] | Ki [1] | IC50 [2] | Ki [2] | IC50 [3] | Ki [3] | IC50 [4] | Ki [4] | IC50 [5] | Ki [5] | IC50 [6] | Ki [6] | IC50 (Cytochrome P450 2A6) | Ki (Cytochrome P450 2A6)

CS(=O)(=O)OCCCCOS(C)(=O)=O [BUSULFAN]
Not Active: IC50 [1] | IC50 [2] | Ki [2] | IC50 [3] | Ki [3] | IC50 [4] | Ki [4] | IC50 [5] | IC50 [6] | IC50 (Cytochrome P450 2A6) | Ki (Cytochrome P450 2A6)
